Values quoted from earlier work as cited in patent US20250367112A1, “DRUG DELIVERY COMPOSITION FOR PROMOTING TISSUE REGENERATION AND KIT FOR DRUG DELIVERY COMPRISING SAME” (T&R BIOFAB CO., LTD., priority 2023, published 2025).
Counter-ions that a name gives are not always drawn. Like-named read-outs stand apart in the source and are kept apart here.

In the case of `CCCN1CCCC[C@H]1C(=O)Nc1c(C)cccc1C` [Ropivacaine HCl], the in vivo half-life (epidural injection) is given as 4.2 ± 1 h and the in vivo half-life (intravenous injection) is given as 1.8 ± 0.7 h.
